# Measured values taken from EP4570793A1, “5-HT2A RECEPTOR INVERSE AGONIST, AND PREPARATION METHOD THEREFOR AND USE THEREOF” (Luye Innomind Pharma Shijiazhuang Co., Ltd., priority 2022, dated 2024).
# Like-named read-outs stand apart in the source and are kept apart here.
# Key:
# hERG potassium channels = hERG potassium channels (Homo sapiens, UniProt Q12809); experiment: cell-based
# Description: • Species & strain: CHO-hERG cell line (Chinese hamster ovary cells stably expressing hERG channels) • Culture medium: 90% F12, 10% fetal bovine serum, 100 µg/mL G418, and 100 µg/mL Hygromycin B • Culture conditions: incubator at 37 °C with 5% CO2 • Cryopreservation condition: liquid nitrogen
# On the day of the test, the compound was diluted with DMSO to an intermediate concentration. Then, 10 µL of the intermediate-concentration compound was transferred to 4990 µL of extracellular fluid, achieving a 500-fold dilution to obtain the final concentration to be tested.
# hERG potassium channel currents were recorded at room temperature by the whole-cell patch clamp technique in the CHO (Chinese hamster ovary) cells stably expressing hERG potassium channels. Glass microelectrodes were formed by pulling a glass electrode blank (BF150-86-10, Sutter) using a puller. The tip resistance after perfusion of electrode internal solution was about 2-5 MΩ. The glass microelectrodes could be connected to a patch clamp amplifier after being inserted into amplifier probes. The clamping voltage and data recording were controlled and recorded by a computer with a pClamp 10 software, with a sampling frequency of 10 kHz and a filtering frequency of 2 kHz. After achieving the whole-cell recording, the cells were clamped at -80 mV. The step voltage evoking hERG potassium current (IhERG) was changed from -80 mV to +20 mV by applying a 2 s depolarization voltage, followed by repolarization to -50 mV for 1 s, and then returned to -80 mV. This voltage stimulation was applied every 10 s, and after it was determined that the hERG potassium currents were stable (1 min), the administration process was started. Each test concentration of the compound was applied for at least 1 min, and at least 2 cells (n ≥ 2) were tested for each concentration.
# 5-HT2A receptor = 5-HT2A receptor (Homo sapiens, UniProt P28223); experiment: Assay for 5-HT2A receptor inverse agonist activity (NIH3T3-5-HT2A R cells, Bright-Glo luciferase, cell inhibition rate)
# Sequence of 5-HT2A receptor (P28223 whole entry): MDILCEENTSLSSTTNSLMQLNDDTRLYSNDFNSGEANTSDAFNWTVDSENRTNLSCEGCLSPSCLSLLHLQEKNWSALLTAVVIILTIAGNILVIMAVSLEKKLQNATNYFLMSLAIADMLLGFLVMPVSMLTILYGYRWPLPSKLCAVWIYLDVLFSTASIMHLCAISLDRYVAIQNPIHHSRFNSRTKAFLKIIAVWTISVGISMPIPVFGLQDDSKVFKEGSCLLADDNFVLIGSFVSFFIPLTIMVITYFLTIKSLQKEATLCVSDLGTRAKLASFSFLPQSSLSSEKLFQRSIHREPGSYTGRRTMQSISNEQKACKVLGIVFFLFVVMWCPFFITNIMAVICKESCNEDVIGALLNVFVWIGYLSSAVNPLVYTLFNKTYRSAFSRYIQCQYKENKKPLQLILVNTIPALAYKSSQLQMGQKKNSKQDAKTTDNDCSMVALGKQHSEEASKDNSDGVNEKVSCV
# Description: Assay for 5-HT2A Receptor Inverse Agonist Activity
# • Cell line: adherent cells NIH3T3-5-HT2A R • Cell culture medium: DMEM + 10% FBS (purchased from GBICO) • Cell culture plate: 96-well white/clear bottom plate (purchased from Perkin Elmer) • Detection kit: Bright-Glo™ Luciferase (purchased from Promega) • Detection instrument: BioTek multimode microplate reader
# NIH3T3-5HT2A R cells in the logarithmic growth phase were seeded into a 96-well white/clear bottom plate at a density of 1000 cells/well and then cultured overnight in an incubator at 37 °C with 5% CO2. […] Duplicate wells were set up for each concentration. […] After the drug addition, the cells were cultured in the incubator at 37 °C with 5% CO2 for another 120 h. On the sixth day, a Bright-Glo™ Luciferase reagent was added to the cells in a volume equal to that of the cell culture medium. The plate was then incubated in the dark at room temperature for 20 min, with the plate shaker vibrating once every 5 min. The luminescence intensity was detected using a microplate reader, and the cell inhibition rate was calculated. Data were processed using GraphPad Prism 7.0 to obtain the cell inhibition rate curve and calculate IC50.
# [1] = In-vitro liver microsomal stability (dog); type: in vitro ADME; conditions: Dog liver microsomes, 1 µM, 0.5 mg/mL, NADPH
# Description: (§1) Test Example 3. Evaluation of In-Vitro Liver Microsomal Stability
# (§2) • 1) Preparation of test sample working solution: A test sample was diluted to 100 µM with methanol. • 2) Preparation of liver microsome working solution: Liver microsomes were diluted to 0.56 mg/mL with 100 mM phosphate-buffered saline. • 3) Preparation of working solution of reduced nicotinamide adenine dinucleotide phosphate (NADPH): A proper amount of NADPH was weighed out and diluted to 20 mM with phosphate-buffered saline, and then an equal volume of a 60 mM MgCl2 solution was added. • 4) Preparation of stop solution: Tolbutamide was diluted to 20 ng/mL with acetonitrile to serve as a stop solution containing an internal standard.
# • 1) Anti-adsorption EP tubes for incubation were prepared and labeled with species, test samples, control samples (testosterone and dextromethorphan), time points (0 min, 5 min, 10 min, 20 min, 30 min, 60 min, Blank60, and NCF60), etc. • 2) 2 µL of test or control sample working solution and 178 µL of liver microsome working solution were added to each tube. For the Blank tube, 2 µL of acetonitrile was added instead of the test sample. The tubes were preincubated in a water bath at 37 °C for about 10 min, with 3 replicates set up for each sample. • 3) After the pre-incubation was completed, 20 µL of NADPH working solution was added to each tube except for the 0 min and NCF60 tubes to start the reaction. For the NCF60 tube, 20 µL of phosphate-buffered saline (containing 30 mM MgCl2) was added. In the incubation system, the final concentration of the test or control sample was 1 µM, the final concentration of liver microsomes was 0.5 mg/mL, the final concentration of NADPH was 1 mM, and the final concentration of MgCl2 was 3 mM. • 4) For the 0 min sample, 600 µL of stop solution was added, followed by the addition of the NADPH working solution. For the other samples, after each of them was incubated for the corresponding time, 600 µL of stop solution was added to stop the reaction. • 5) After the reaction was stopped, each sample was vortexed for 30 s and then centrifuged at 13500 rpm for 10 min. Then, 100 µL of the supernatant was transferred to an EP tube, and 100 µL of Milli-Q water was added. The mixture was well mixed by vortexing and analyzed by LC-MS/MS. • 6) Testosterone and dextromethorphan were used as positive control samples under the same conditions to assess the stability and reliability of the system. […]
# [2] = In-vitro liver microsomal stability (human); type: in vitro ADME; conditions: Human liver microsomes, 1 µM, 0.5 mg/mL, NADPH
# Description: as §1, §2
# (§3) • 1) Anti-adsorption EP tubes for incubation were prepared and labeled with species, test samples, control samples (testosterone and dextromethorphan), time points (0 min, 5 min, 10 min, 20 min, 30 min, 60 min, Blank60, and NCF60), etc. • 2) 2 µL of test or control sample working solution and 178 µL of liver microsome working solution were added to each tube. For the Blank tube, 2 µL of acetonitrile was added instead of the test sample. The tubes were preincubated in a water bath at 37 °C for about 10 min, with 3 replicates set up for each sample. • 3) After the pre-incubation was completed, 20 µL of NADPH working solution was added to each tube except for the 0 min and NCF60 tubes to start the reaction. For the NCF60 tube, 20 µL of phosphate-buffered saline (containing 30 mM MgCl2) was added. In the incubation system, the final concentration of the test or control sample was 1 µM, the final concentration of liver microsomes was 0.5 mg/mL, the final concentration of NADPH was 1 mM, and the final concentration of MgCl2 was 3 mM. • 4) For the 0 min sample, 600 µL of stop solution was added, followed by the addition of the NADPH working solution. For the other samples, after each of them was incubated for the corresponding time, 600 µL of stop solution was added to stop the reaction. • 5) After the reaction was stopped, each sample was vortexed for 30 s and then centrifuged at 13500 rpm for 10 min. Then, 100 µL of the supernatant was transferred to an EP tube, and 100 µL of Milli-Q water was added. The mixture was well mixed by vortexing and analyzed by LC-MS/MS. • 6) Testosterone and dextromethorphan were used as positive control samples under the same conditions to assess the stability and reliability of the system.
# (§4) Table 2: Test data for the compounds of the present disclosure in human and rat liver microsomes
# [3] = In-vitro liver microsomal stability (rat); type: in vitro ADME; conditions: Rat liver microsomes, 1 µM, 0.5 mg/mL, NADPH
# Description: as §1, §2, §3, §4
# [4] = 5-HT2A inverse agonist activity IC50 (nM), NIH3T3-5HT2A R cells, 120 h, luminescence
# Sequence of hERG potassium channels (Q12809 whole entry): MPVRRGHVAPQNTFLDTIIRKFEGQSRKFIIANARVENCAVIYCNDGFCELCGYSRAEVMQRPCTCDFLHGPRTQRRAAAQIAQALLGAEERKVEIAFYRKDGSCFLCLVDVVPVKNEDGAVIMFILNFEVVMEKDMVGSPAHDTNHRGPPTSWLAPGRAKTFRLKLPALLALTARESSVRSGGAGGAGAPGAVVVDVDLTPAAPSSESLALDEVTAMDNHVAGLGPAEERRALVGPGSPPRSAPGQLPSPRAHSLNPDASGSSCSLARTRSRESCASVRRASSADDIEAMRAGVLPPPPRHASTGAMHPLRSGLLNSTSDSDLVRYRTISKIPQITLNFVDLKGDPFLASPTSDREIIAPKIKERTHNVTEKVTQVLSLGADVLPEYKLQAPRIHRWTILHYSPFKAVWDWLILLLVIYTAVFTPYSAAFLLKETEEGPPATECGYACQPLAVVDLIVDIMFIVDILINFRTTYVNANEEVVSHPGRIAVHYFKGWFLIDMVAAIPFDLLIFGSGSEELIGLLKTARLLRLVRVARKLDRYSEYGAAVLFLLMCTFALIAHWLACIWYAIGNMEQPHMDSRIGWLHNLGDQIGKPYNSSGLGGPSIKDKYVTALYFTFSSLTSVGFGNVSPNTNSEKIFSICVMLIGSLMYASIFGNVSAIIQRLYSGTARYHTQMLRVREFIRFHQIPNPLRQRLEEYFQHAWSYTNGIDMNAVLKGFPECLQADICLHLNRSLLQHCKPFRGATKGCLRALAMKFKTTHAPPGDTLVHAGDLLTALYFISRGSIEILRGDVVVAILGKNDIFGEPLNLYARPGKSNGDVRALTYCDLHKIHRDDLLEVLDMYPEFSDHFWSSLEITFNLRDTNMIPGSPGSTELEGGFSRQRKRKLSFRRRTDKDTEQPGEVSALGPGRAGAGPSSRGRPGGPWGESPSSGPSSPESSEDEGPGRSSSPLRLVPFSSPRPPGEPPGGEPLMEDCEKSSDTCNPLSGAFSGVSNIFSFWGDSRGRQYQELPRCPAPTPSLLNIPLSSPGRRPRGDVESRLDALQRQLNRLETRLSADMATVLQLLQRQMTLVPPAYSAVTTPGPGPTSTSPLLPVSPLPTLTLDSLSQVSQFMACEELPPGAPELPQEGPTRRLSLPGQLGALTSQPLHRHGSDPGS
SMILES,IC50 (hERG potassium channels) [nM],IC50 (5-HT2A receptor) [nM],Remaining amount% at 60 min [1] [%],Remaining amount% at 60 min [2] [%],IC50 (5-HT2A receptor; [4]) [nM],Remaining amount% at 60 min [3] [%]
CN1CC[C@H](N(Cc2ccc(F)cn2)C(=O)NCc2ccc(OCC(F)(F)F)nc2)[C@@H](F)C1 [Compound 66],2990,22.7,85.1,73.7,–,–
CN1CCC(N(Cc2ccc(F)cn2)C(=O)NCc2ccc3[nH]ccc3c2)CC1 [Compound 9],3120,–,45.3,93.1,28.2,–
CN1CCC(N(Cc2ccc(F)cn2)C(=O)NCc2ccc3ncccc3c2)CC1 [Compound 10],3860,–,58.6,71.9,29.6,–
CN1CCC(N(Cc2ccc(F)cn2)C(=O)NCc2ccc(OCC(F)(F)F)cn2)CC1 [Compound 1],4930,–,88.7,85.7,152,–
CN1CCC(N(Cc2ccc(F)cn2)C(=O)NCc2ccc3c(ccn3C)c2)CC1 [Compound 12],2220,163,–,77.06,–,69.21
CN1CCC(N(Cc2ccc(F)cn2)C(=O)NCc2ccc(OC3CC3)cn2)CC1 [Compound 2],–,72.8,76.7,79.7,–,–
CN1CCC(N(Cc2ccc(F)cn2)C(=O)NCc2cnc(OCC(F)(F)F)c(Cl)c2)CC1 [Compound 27],> 30000,–,–,50.93,–,63.98
"CN1CCC(N(Cc2ccc(F)cn2)C(=O)NCc2ccc(OCC(F)(F)F)nc2)C2(CC2)C1 (single isomer, unassigned) [Compound 50A]",2200,–,–,89.7,2.6,58.8
CN1CC[C@@H](N(Cc2ccc(F)cn2)C(=O)NCc2ccc(OCC(F)(F)F)nc2)[C@H](F)C1 [Compound 67],–,> 1000,81.4,66.2,–,–
CN1CCC(N(Cc2ccc(F)cn2)C(=O)NCc2cnc(OCC(F)(F)F)c(Br)c2)CC1 [Compound 28],> 30000,–,–,38.94,–,54.78
